# Structures can show the parent of a compound that is named as a salt.
# Target: T1, CCK Receptor (Pancreas) (Rattus norvegicus, UniProt P30551)
# T1 construct: The whole pancreas was dissected free of fat tissue and was homogenized; from tissue; host or cells: rat pancreas membrane homogenate
# T1 sequence (P30551 1-444): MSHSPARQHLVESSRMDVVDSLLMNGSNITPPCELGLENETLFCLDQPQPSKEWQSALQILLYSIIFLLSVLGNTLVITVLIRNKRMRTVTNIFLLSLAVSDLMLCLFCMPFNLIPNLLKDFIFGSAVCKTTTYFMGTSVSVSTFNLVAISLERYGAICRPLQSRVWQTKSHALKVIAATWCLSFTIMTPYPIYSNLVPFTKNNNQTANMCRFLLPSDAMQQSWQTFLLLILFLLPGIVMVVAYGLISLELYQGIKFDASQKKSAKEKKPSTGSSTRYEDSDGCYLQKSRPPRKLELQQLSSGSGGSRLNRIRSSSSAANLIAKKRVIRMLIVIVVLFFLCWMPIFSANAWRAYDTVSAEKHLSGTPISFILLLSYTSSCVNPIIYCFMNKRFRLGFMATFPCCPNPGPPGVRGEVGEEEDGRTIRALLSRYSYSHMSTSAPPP
# Test: CCK Receptor Binding (Pancreas), inhibition of specific 125I-CCK-8 binding
# Set-up: species or system Sprague-Dawley rats
# Conditions: rat whole pancreas membranes; 50 pM 125I-CCK-8; 25°C for 2 hours
# Description: CCK-8 sulphated was radiolabelled with ¹²⁵I-Bolton Hunter reagent (2000 Ci/mmole). Receptor binding was performed according to Chang and Lotti (Proc. Natl. Acad. Sci. 83, 4923-4926, 1986) with minor modifications.
# Male Sprague-Dawley rats (150-200g) were sacrificed by decapitation. The whole pancreas was dissected free of fat tissue and was homogenized in 25 volumes of ice-cold 10 mM N-2-hydroxyethyl-piperazine-N′-2-ethane sulphonic acid (HEPES) buffer with 0.1% soya bean trypsin inhibitor (pH 7.4 at 25°C) with a Kinematica Polytron. The homogenates were centrifuged at 47,800 g for 10 min. Pellets were resuspended in 10 volumes of binding assay buffer (20mM (HEPES)), 1mM ethylene glycol-bis-(β-aminoethylether-N,N′-tetraacetic acid) (EGTA), 5mM MgCl₂, 150 mM NaCl, bacitracin 0.25 mg/ml, soya bean trypsin inhibitor 0.1 mg/ml, and bovine serum albumin 2 mg/ml pH 6.5 at 25°C) using a Teflon (trademark) homogenizer, 15 strokes at 500 rpm. The homogenate was further diluted in binding assay buffer to give a final concentration of 0.5 mg original wet weight/1 ml buffer. […] All assays were run in duplicate. The reaction mixtures were incubated at 25°C for 2 hours and the reaction terminated by rapid filtration (Brandell 24 well cell harvester) over Whatman GF/C filters, washing 3 x 4 mls with ice-cold 100 Mm NaCl. The radioactivity on the filters was counted with a LKB gamma counter.
# Drug displacement studies were performed with at least 10 concentrations of compounds of Formula I and the IC₅₀ values were determined by regression analysis IC₅₀ refers to the concentration of the compound required to inhibit 50% of specific binding of ¹²⁵I-CCK-8.
row,IC50 [nM],SMILES
1,10.5,"CCCN1C(=O)C(NC(=O)Nc2cccc(C)c2)N=C(N2CCSCC2)c2ccccc21 (single isomer, unassigned; (+)) [Example 70, (+)-N-[2,3-Dihydro-2-oxo-1-propyl-5-(thiomorpholin-4-yl)-1H-1,4-benzodiazepin-3-yl]-N′-[3-methylphenyl] urea hydrochloride]"
2,2400,"CCc1cccc(NC(=O)NC2N=C(N3CCN(C)CC3)c3ccccc3N(CC(C)C)C2=O)c1 (racemic) [Example 23, N-[3(R,S)-2,3-Dihydro-5-(4-methylpiperazin-1-yl)-1-(2-methylpropyl)-2-oxo-1H-1,4-benzodiazepin-3-yl]-N′-[3-ethylphenyl] urea]"
3,31.4,"CN1C(=O)C(NC(=O)Nc2cccc(C(F)(F)F)c2)N=C(N2CCCCCC2)c2ccccc21 (racemic) [Example 48, N-[3(R,S)-2,3-Dihydro-5-(homopiperidin-1-yl)-1-methyl-2-oxo-1H-1,4-benzodiazepin-3-yl]-N′-[3-trifluoromethylphenyl] urea]"
4,3.59,"CCN1C(=O)C(NC(=O)Nc2cccc(C)c2)N=C(N2CCCCCC2)c2ccccc21 (racemic) [Example 64, N-[3(R,S)-2,3-Dihydro-1-ethyl-5-(homopiperidin-1-yl)-2-oxo-1H-1,4-benzodiazepin-3-yl]-N′-[3-methylphenyl] urea]"
5,25,"CCc1cccc(NC(=O)NC2N=C(N3CCCCC3)c3ccccc3N(C)C2=O)c1 (racemic) [Example 19, N-[3(R,S)-2,3-Dihydro-1-methyl-2-oxo-5-(piperidin-1-yl)-1H-1,4-benzodiazepin-3-yl]-N′-[3-ethylphenyl] urea]"
6,> 3000,"CCCN1C(=O)C(NC(=O)Nc2ccc3c(c2)CCC3)N=C(N2CCN(C)CC2)c2ccccc21 (racemic) [Example 33, N-[3(R,S)-2,3-Dihydro-5-(4-methylpiperazin-1-yl)-2-oxo-1-propyl-1H-1,4-benzodiazepin-3-yl]-N′-[5-indanyl] urea]"
7,2430,"CN1C(=O)C(NC(=O)Nc2ccc3c(c2)CCC3)N=C(N2CCCCCC2)c2ccccc21 (single isomer, unassigned; (-)) [Example 58, (-)-N-[2,3-Dihydro-5-(homopiperidin-1-yl)-1-methyl-2-oxo-1H-1,4-benzodiazepin-3-yl]-N′-[5-indanyl] urea hydrochloride]"
8,> 3000,"CCCN1C(=O)C(NC(=O)Nc2ccc3c(c2)N(C)CC3)N=C(N2CCN(C)CC2)c2ccccc21 (racemic) [Example 56, N-[3(R,S)-2,3-Dihydro-5-(4-methylpiperazin-1-yl)-2-oxo-1-propyl-1H-1,4-benzodiazepin-3-yl]-N#MIN#-[1-methyl-6-indolinyl] urea]"
9,28.2,"CN1C(=O)C(NC(=O)Nc2ccc3c(c2)CCC3)N=C(N2CCCCCC2)c2ccccc21 (racemic) [Example 46, N-[3(R,S)-2,3-Dihydro-5-(homopiperidin-1-yl)-1-methyl-2-oxo-1H-1,4-benzodiazepin-3-yl]-N′-[5-indanyl] urea]"
10,> 3000,"CCNC(=O)c1cccc(NC(=O)NC2N=C(N3CCN(C)CC3)c3ccccc3N(C)C2=O)c1 (racemic) [Example 18, N-[3(R,S)-2,3-Dihydro-1-methyl-2-oxo-5-(4-methylpiperazin-1-yl)-1H-1,4-benzodiazepin-3-yl]-N′-[3-(N-ethylcarboxamido)phenyl] urea]"
11,956,"CCCN1C(=O)C(NC(=O)Nc2cccc(C)c2)N=C(N2CCN(C)CC2)c2ccc(N(C)C)cc21 (racemic) [Example 45, N-[3(R,S)-2,3-Dihydro-8-dimethylamino-5-(4-methylpiperazin-1-yl)-2-oxo-1-propyl-1H-1,4-benzodiazepin-3-yl]-N′-[3-methylphenyl] urea]"
12,2400,"CCCN1C(=O)C(NC(=O)Nc2cccc(CC)c2)N=C(N2CCN(C)CC2)c2ccccc21 (racemic) [Example 21, N-[3(R,S)-2,3-Dihydro-5-(4-methylpiperazin-1-yl)-2-oxo-1-propyl-1H-1,4-benzodiazepin-3-yl]-N#MIN#-[3-ethylphenyl] urea]"
13,> 3000,"CN1CCN(C2=NC(NC(=O)Nc3ccc(Cl)cc3)C(=O)N(C)c3ccccc32)CC1 (racemic) [Example 7, N-[3(R,S)-2,3-Dihydro-1-methyl-5-(4-methylpiperazin-1-yl-2-oxo-1H-1,4-benzodiazepin-3-yl] N′-[4-chlorophenyl]urea]"
14,4320,"CCc1cccc(NC(=O)NC2N=C(N3CCN(C)CC3)c3ccccc3N(C)C2=O)c1 (racemic) [Example 5, N-[3(R,S)-2,3-Dihydro-1-methyl-5-(4-methylpiperazin-1-yl)-2-oxo-1H-1,4-benzodiazepin-3-yl] N′-[3-ethylphenyl] urea]"
15,3080,"CCc1cccc(NC(=O)NC2N=C(N3CCN(C)CC3)c3ccccc3N(CC(C)C)C2=O)c1 (single isomer, unassigned; (+)) [Example 27, (+)-N-[2,3-Dihydro-5-(4-methylpiperazin-1-yl)-1-(2-methylpropyl)-2-oxo-1H-1,4-benzodiazepin-3-yl]-N#MIN#-[3-ethylphenyl] urea]"
16,1920,"Cc1cccc(NC(=O)NC2N=C(N3CCCCCCC3)c3ccccc3N(C)C2=O)c1 (single isomer, unassigned; (-)) [Example 51, (-)-N-[2,3-Dihydro-5-(heptamethyleneimin-1-yl)-1-methyl-2-oxo-1H-1,4-benzodiazepin-3-yl]-N′-[3-methylphenyl] urea hydrochloride]"
17,3730,"CCCN1C(=O)C(NC(=O)Nc2cccc(C)c2)N=C(N2CCN(CC)CC2)c2ccccc21 (racemic) [Example 37, N-[3(R,S)-2,3-Dihydro-5-(4-ethylpiperazin-1-yl)-2-oxo-1-propyl-1H-1,4-benzodiazepin-3-yl]-N#MIN#-[3-methylphenyl] urea]"
18,399,"CC(C)c1ccc(NC(=O)NC2N=C(N3CCCCCC3)c3ccccc3N(C)C2=O)cc1 (racemic) [Example 54, N-[3(R,S)-2,3-Dihydro-5-(homopiperidin-1-yl)-1-methyl-2-oxo-1H-1,4-benzodiazepin-3-yl]-N′-[4-isopropylphenyl] urea]"
19,> 3000,"CCCN1C(=O)C(NC(=O)Nc2ccc(N(C)C)cc2)N=C(N2CCN(C)CC2)c2ccccc21 (racemic) [Example 53, N-[3(R,S)-2,3-Dihydro-5-(4-methylpiperazin-1-yl)-2-oxo-1-propyl-1H-1,4-benzodiazepin-3-yl]-#′-[4-(dimethylamino)phenyl] urea]"
20,> 3000,"CN1CCN(C2=NC(NC(=O)Nc3cccc(C(=O)N(C)C)c3)C(=O)N(C)c3ccccc32)CC1 (racemic) [Example 15, N-[3(R,S)-2,3-Dihydro-1-methyl-2-oxo-5-(4-methylpiperazin-1-yl)-1H-1,4-benzodiazepin-3-yl]-N′-[3-(N,N-dimethylcarboxamido)phenyl] urea]"
21,23.4,"CCCN1C(=O)C(NC(=O)Nc2cccc(C)c2)N=C(N2CCCCCC2)c2ccccc21 (racemic) [Example 47, N-[3(R,S)-2,3-Dihydro-5-(homopiperidin-1-yl)-2-oxo-1-propyl-1H-1,4-benzodiazepin-3-yl]-N′-[3-methylphenyl] urea]"
22,16.7,"CN1C(=O)C(NC(=O)Nc2ccc(F)c(F)c2)N=C(N2CCCCCC2)c2ccccc21 (racemic) [Example 57, N-[3(R,S)-2,3-Dihydro-5-(homopiperidin-1-yl)-1-methyl-2-oxo-1H-1,4-benzodiazepin-3-yl]-N′-[3,4-difluorophenyl] urea]"
23,> 3000,"Cc1cccc(NC(=O)NC2N=C(N3CCNCC3)c3ccccc3N(C)C2=O)c1 (racemic) [Example 9, N-[3(R,S)-2,3-Dihydro-1-methyl-2-oxo-5-(piperazin-1-yl)-1H-1,4-benzodiazepin-3-yl]-N′-[3-methylphenyl] urea]"
24,4720,"CCc1cccc(NC(=O)NC2N=C(N3CCN(C)CC3)c3ccccc3N(CC(C)C)C2=O)c1 (single isomer, unassigned; (-)) [Example 26, (-)-N-[2,3-Dihydro-5-(4-methylpiperazin-1-yl)-1-(2-methylpropyl)-2-oxo-1H-1,4-benzodiazepin-3-yl]-N#MIN#-[3-ethylphenyl] urea]"
25,4.39,"CCc1cccc(NC(=O)NC2N=C(N3CCCCCC3)c3ccccc3N(C)C2=O)c1 (racemic) [Example 63, N-[3(R,S)-2,3-Dihydro-5-(homopiperidin-1-yl)-1-methyl-2-oxo-1H-1,4-benzodiazepin-3-yl]-N′-[3-ethylphenyl] urea]"

# Reference: EP0539170A1, “Benzodiazepine derivatives and their use as antagonists of cholecystokinin and/or gastrin receptors” (priority 1991, dated 1993)
